Test results from patent US20150218212A1, “FLUORINATED EPOXYKETONE-BASED TETRAPEPTIDE COMPOUNDS AND USES THEREOF AS PROTEASOME INHIBITORS” (FLUORINOV PHARMA INC., priority 2012, published 2015).

How the values were obtained:
Type in all cases: cell-based, human
SK-OV-3 = assay: NCI screening panel, SK-OV-3 (Ovarian Cancer)
Experimental: (§1) Representative compounds of Formula I were screened using the National Cancer Institute (NCI) screening panel, which consists of a panel of human tumor cell lines, representing leukemia, melanoma, and cancers of the lung, colon, ovary, breast, prostate and renal system.
(§2) After 24 h, two plates of each cell line are fixed in situ with TCA, to represent a measurement of the cell population for each cell line at the time of drug addition (Tz). Experimental drugs are solubilised in dimethyl sulfoxide at 400-fold the desired final maximum test concentration and stored frozen prior to use. At the time of drug addition, an aliquot of frozen concentrate is thawed and diluted to twice the desired final maximum test concentration with complete medium containing 50 μg/mL gentamicin. Additional four, 10-fold or ½ log serial dilutions are made to provide a total of five drug concentrations plus control. Aliquots of 100 μl of these different drug dilutions are added to the appropriate microtiter wells already containing 100 μl of medium, resulting in the required final drug concentrations.
(§3) Following drug addition, the plates are incubated for an additional 48 h at 37° C., 5% CO2, 95% air, and 100% relative humidity. For adherent cells, the assay is terminated by the addition of cold TCA (trichloroacetic acid). Cells are fixed in situ by the gentle addition of 50 μl of cold 50% (w/v) TCA (final concentration, 10% TCA) and incubated for 60 minutes at 4° C. The supernatant is discarded, and the plates are washed five times with tap water and air dried. Sulforhodamine B (SRB) solution (100 μl) at 0.4% (w/v) in 1% acetic acid is added to each well, and plates are incubated for 10 minutes at room temperature. After staining, unbound dye is removed by washing five times with 1% acetic acid and the plates are air dried. Bound stain is subsequently solubilised with 10 mM trizma base, and the absorbance is read on an automated plate reader at a wavelength of 515 nm. For suspension cells, the methodology is the same except that the assay is terminated by fixing settled cells at the bottom of the wells by gently adding 50 μl of 80% TCA (final concentration, 16% TCA). Using the seven absorbance measurements [time zero, (Tz), control growth, (C), and test growth in the presence of drug at the five concentration levels (Ti)], the percentage growth is calculated at each of the drug concentrations levels. Percentage growth inhibition is calculated as: [(Ti−Tz)/(C−Tz)]×100 for concentrations for which Ti>/=Tz and [(Ti−Tz)/Tz]×100 for concentrations for which Ti<Tz.
(§4) Three dose response parameters are calculated for each experimental agent. Growth inhibition of 50% (GI50) is calculated from [(Ti−Tz)/(C−Tz)]×100=50, which is the drug concentration resulting in a 50% reduction in the net protein increase (as measured by SRB staining) in control cells during the drug incubation. The drug concentration resulting in total growth inhibition (TGI) is calculated from Ti=Tz. The LC50 (concentration of drug resulting in a 50% reduction in the measured protein at the end of the drug treatment as compared to that at the beginning) indicating a net loss of cells following treatment is calculated from [(Ti−Tz)/Tz]×100=−50. Values are calculated for each of these three parameters if the level of activity is reached. However, if the effect is not reached or is exceeded, the value for that parameter is expressed as greater or less than the maximum or minimum concentration tested.

MDA-MB-468 = assay: NCI screening panel, MDA-MB-468 (Breast Cancer)
Experimental: as §1, §2, §3, §4

CAKI-1 = assay: NCI screening panel, CAKI-1 (Renal Cancer)
Experimental: as §1, §2, §3, §4

NCI/ADR-RES = assay: NCI screening panel, NCI/ADR-RES (Ovarian Cancer)
Experimental: as §1, §2, §3, §4

HS 578T = assay: NCI screening panel, HS 578T (Breast Cancer)
Experimental: as §1, §2, §3, §4

ACHN = assay: NCI screening panel, ACHN (Renal Cancer)
Experimental: as §1, §2, §3, §4

OVCAR-4 = assay: NCI screening panel, OVCAR-4 (Ovarian Cancer)
Experimental: as §1, §2, §3, §4

COLO 205 = assay: NCI screening panel, COLO 205 (Colon Cancer)
Experimental: as §1, §2, §3, §4

UO-31 = assay: NCI screening panel, UO-31 (Renal Cancer)
Experimental: as §1, §2, §3, §4

RXF 393 = assay: NCI screening panel, RXF 393 (Renal Cancer)
Experimental: as §1, §2, §3, §4

PC-3 = assay: NCI screening panel, PC-3 (Prostate Cancer)
Experimental: as §1, §2, §3, §4

SF-268 = assay: NCI screening panel, SF-268 (CNS Cancer)
Experimental: as §1, §2, §3, §4

BT-549 = assay: NCI screening panel, BT-549 (Breast Cancer)
Experimental: as §1, §2, §3, §4

CC(C)C[C@H](NC(=O)[C@H](COC(F)F)NC(=O)[C@H](COC(F)F)NC(=O)[C@H](COC(F)F)NC(=O)CN1CCOCC1)C(=O)[C@@]1(C)CO1 [Example 17, (2S)-3-(difluoromethoxy)-N-[(1S)-1-(difluoromethoxymethyl)-2-[[(1S)-1-(difluoro-methoxymethyl)-2-[[(1S)-3-methyl-1-[(2R)-2-methyloxirane-2-carbonyl]butyl]amino]-2-oxo-ethyl]amino]-2-oxo-ethyl]-2-[(2-mor-pholinoacetyl)amino]-propanamide]
Log10GI50 (SK-OV-3): −6.26 | Log10LC50 (SK-OV-3): >−4.00 | Log10TGI50 (SK-OV-3): >−4.00 | Log10GI50 (MDA-MB-468): −7.04 | Log10LC50 (MDA-MB-468): >−4.00 | Log10TGI50 (MDA-MB-468): −6.17 | Log10GI50 (CAKI-1): −5.54 | Log10LC50 (CAKI-1): >−4.00 | Log10TGI50 (CAKI-1): −4.81 | Log10GI50 (NCI/ADR-RES): −4.50 | Log10LC50 (NCI/ADR-RES): >−4.00 | Log10TGI50 (NCI/ADR-RES): >−4.00 | Log10GI50 (HS 578T): −7.15 | Log10LC50 (HS 578T): >−4.00 | Log10TGI50 (HS 578T): −5.27 | Log10GI50 (ACHN): −5.55 | Log10LC50 (ACHN): >−4.00 | Log10TGI50 (ACHN): >−4.00 | Log10GI50 (OVCAR-4): −7.23 | Log10LC50 (OVCAR-4): >−4.00 | Log10TGI50 (OVCAR-4): −4.55 | Log10GI50 (COLO 205): −6.62 | Log10LC50 (COLO 205): >−4.00 | Log10TGI50 (COLO 205): −4.76 | Log10GI50 (UO-31): −5.40 | Log10LC50 (UO-31): −4.00 | Log10TGI50 (UO-31): −4.65 | Log10GI50 (RXF 393): −6.48 | Log10LC50 (RXF 393): −5.41 | Log10TGI50 (RXF 393): −5.94 | Log10GI50 (PC-3): −6.76 | Log10LC50 (PC-3): −5.02 | Log10TGI50 (PC-3): −6.12 | Log10GI50 (SF-268): −7.15 | Log10LC50 (SF-268): −4.87 | Log10TGI50 (SF-268): −6.47 | Log10GI50 (BT-549): −7.11 | Log10LC50 (BT-549): >−4.00 | Log10TGI50 (BT-549): −6.43
